Counter-ions that a name gives are not always drawn. Like-named read-outs stand apart in the source and are kept apart here.
Tests used:
Format in all cases: cell-based
Notch1 = Notch1 Reporter Assay
[1] = system: OE33 Esophageal Adenocarcinoma cell line; assay: OE33 Colony Formation Assay; conditions: Homo sapiens, OE33, 168 h, OE33 cells, 200 cells/well, 7 days, CellTiter-Glo
Description: OE33 Colony Formation Assay
The OE33 Esophageal Adenocarcinoma cell line was cultured and plated into 96-well tissue culture plates under sparse conditions (200 cells/well). Test compounds were serially diluted in DMSO and then into culture media (final DMSO concentration = 0.1%). Compound/media was then added to cells every 48 hours for a total of 7 days. Clonogenic growth was assessed using the CellTiter-Glo reagent, according to manufacturer (Promega) specifications. Percent inhibition was calculated as the percent of luminescence normalized to control (0.1% DMSO) wells. Nonlinear regression curve fitting was performed using GraphPad Prism software to determine EC50′s.

hNotch1ICD = molecular target: T1, hNotch1ICD (Homo sapiens, UniProt P46531); assay: Notch1 Reporter Assay (Dox-inducible Notch1-ICD, CSL-responsive luciferase in 293A cells); conditions: 293A cells, 24 h, luciferase normalized to cell viability; read-out: Notch1 Reporter Assay IC50
T1 construct: pLV[Tet]-Puro-TRE3G>Notch1-ICD; expressed in transfected cells; host or cells: 293A cells
T1 sequence (P46531 1754-2555 limits assumed): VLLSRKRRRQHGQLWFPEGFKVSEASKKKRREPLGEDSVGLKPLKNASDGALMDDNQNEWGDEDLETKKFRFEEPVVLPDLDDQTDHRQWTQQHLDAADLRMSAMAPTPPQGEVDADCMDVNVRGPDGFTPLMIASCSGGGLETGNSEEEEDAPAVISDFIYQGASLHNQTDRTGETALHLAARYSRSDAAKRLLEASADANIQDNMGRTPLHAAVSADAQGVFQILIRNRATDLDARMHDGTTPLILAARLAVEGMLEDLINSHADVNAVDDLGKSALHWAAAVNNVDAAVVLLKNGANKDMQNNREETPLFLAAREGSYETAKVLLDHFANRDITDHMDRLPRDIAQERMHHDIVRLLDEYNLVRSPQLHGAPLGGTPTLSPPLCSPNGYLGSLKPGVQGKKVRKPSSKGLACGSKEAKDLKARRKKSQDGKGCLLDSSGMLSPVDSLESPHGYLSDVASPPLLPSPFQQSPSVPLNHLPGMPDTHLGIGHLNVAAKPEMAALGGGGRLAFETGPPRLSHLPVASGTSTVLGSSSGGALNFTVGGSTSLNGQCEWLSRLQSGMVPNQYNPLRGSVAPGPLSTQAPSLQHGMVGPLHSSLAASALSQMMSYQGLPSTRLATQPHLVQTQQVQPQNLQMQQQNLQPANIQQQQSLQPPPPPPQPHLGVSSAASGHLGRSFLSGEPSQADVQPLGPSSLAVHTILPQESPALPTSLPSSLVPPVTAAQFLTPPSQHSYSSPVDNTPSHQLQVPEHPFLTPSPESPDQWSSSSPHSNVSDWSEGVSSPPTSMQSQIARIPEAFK
Description: 293A cells expressing 1) pCMV-Tet-On 3G, 2) pLV[Tet]-Puro-TRE3G>Notch1-ICD, 3) pLV[Tet]-Puro-TRE3G>Notch2-ICD, 4) pLV[Tet]-Puro-TRE3G>Notch3-ICD, and 5) pCSL-RElement-Luc were used. When Doxycycline is added, the Tet-ON gene activates expression of hNotch1ICD, which together with endogenous NTC components binds to CSL responsive elements (pCSL-RElement-Luc) and expresses luciferase. 1 ×× 10^4 cells are plated in 100 µL (96-well format). 24 h later, compounds (10 mM stock in DMSO) are diluted in DMSO to 200X, then added (5 ul into 1 mL) to cell culture media containing 50 ng/mL Dox. This is then added 1:1 to cells. Final DMSO = 0.25%, Dox = 25 ng/mL. After 24 h, media is discarded, and cells are lysed in passive lysis buffer (Promega). Cells are rocked at room temperature for 15 min and then lysate is divided for luciferase assay (Luciferase Assay System, Promega) and cell viability (CellTiter Glo 2.0, Promega). Raw luciferase is normalized to cell viability, and then scaled to DMSO wells. Results are analyzed and IC50′s are determined in GraphPad by nonlinear regression curve fitting (4 parameter) of dose response curves.

| Structure (SMILES) | IC50 (Notch1; Formate Salt) [µM] | IC50 (Notch1) [µM] | EC50 [1] [µM] | IC50 (hNotch1ICD) [µM] |
| --- | --- | --- | --- | --- |
| CC(C)Cn1c(=O)c(C(=O)Nc2cccc(N3CCN(C)CC3)c2)c(O)c2ccccc21 [SSTN-560 Formate Salt, 4-Hydroxy-1-Isobutyl-N-(3-(4-Methylpiperazin-1-Yl)Phenyl)-2-Oxo-1,2-Dihydroquinoline-3-Carboxamide Formate Salt] | 10.2 |  |  |  |
| CC(C)Cn1c(=O)c(C(=O)Nc2cccc(N3CCN(C)CC3)c2)c(O)c2ccccc21 [SSTN-560, 4-hydroxy-1-isobutyl-N-(3-(4-methylpiperazin-1-yl)phenyl)-2-oxo-1,2-dihydroquinoline-3-carboxamide] |  | 14.2 |  |  |
| CC(C)Cn1c(=O)c(C(=O)Nc2cccc(N3CCN(C)CC3)c2)c(O)c2ccccc21 [SSTN-560_HCI salt, 4-hydroxy-1-isobutyl-N-(3-(4-methylpiperazin-1-yl)phenyl)-2-oxo-1,2-dihydroquinoline-3-carboxamide] |  | 7.7 |  |  |
| CC(C)Cn1c(=O)c(C(=O)Nc2cccc(N3CCNCC3)c2)c(O)c2ccccc21 [compound 552, 4-hydroxy-1-isobutyl-2-oxo-N-(3-(piperazin-1-yl)phenyl)-1,2-dihydroquinoline-3-carboxamide trifluoro aceticacid] |  |  | 0.9 | 4.3 |
| CC(C)Cn1c(=O)c(C(=O)Nc2cccc(N(C)C3CC3)c2)c(O)c2ccccc21 [compound 561, N-(3-(cyclopropyl(methyl)amino)phenyl)-4-hydroxy-1-isobutyl-2-oxo-1,2-dihydroquinoline-3-carboxamide] |  |  | 3.9 | 19.1 |
| CC(C)Cn1c(=O)c(C(=O)Nc2cccc(N(C)CC3CC3)c2)c(O)c2ccccc21 [compound 562, N-(3-((cyclopropylmethyl)(methyl)amino)phenyl)-4-hydroxy-1-isobutyl-2-oxo-1,2-dihydroquinoline-3-carboxamide] |  |  | 7.7 | 15 |

Reference: patent publication US20230203003A1, “Notch Inhibitors and Uses Thereof” (StemSynergy Therapeutics, Inc., priority 2020, published 2023)
